Experimental data published in publication PMC4919188 (Nature, 2016).

What was measured:
[1] = system: nerve-injury evoked mechanical allodynia; details: cited from earlier work
[2] = system: mouse paw mechanical response threshold; assay: Von Frey test, mechanical sensitivity; type: in vivo; details: native Hm1b 500 nM intraplantar, n = 5
P0 mouse TG neurons = assay: Ratiometric calcium imaging, P0 mouse TG neurons; type: cell-based; details: ICA-121431 500 nM, SGTx1 500 nM; P0 mouse neurons (Extended Data Fig. 1d)
[3] = system: high-threshold colonic afferents from healthy mice; assay: Ex vivo gut-nerve recording, high-threshold colonic afferents, healthy mice; set-up: species or system mouse; details: ICA-121432 with or without Hm1a (100 nM), afferents/total
[4] = system: high-threshold colonic afferents from CVH mice; assay: Ex vivo gut-nerve recording, high-threshold colonic afferents, CVH mice; set-up: species or system mouse

NC(=O)c1cn(Cc2c(F)cccc2F)nn1 [rufinamide]
effect on nerve-injury evoked mechanical allodynia [1]: diminish nerve-injury evoked mechanical allodynia

Hm1b: inhibitor cysteine knot (ICK) peptide from venom of the tarantula Heteroscodra maculata
mechanical sensitization compared with Hm1a [2]: Equivalent mechanical sensitization

O=C(Nc1ccc(S(=O)(=O)Nc2nccs2)cc1)C(c1ccccc1)c1ccccc1 [ICA-121431]
block of SGTx1-evoked calcium responses (P0 mouse TG neurons): only partially blocked | afferents unaltered by ICA [3]: 5/10 | sensitizing effects of Hm1a ([4]; ICA-121431 with Hm1a): blocked the sensitizing effects of Hm1a | afferents unaltered by ICA ([4]; ICA-121432 with or without Hm1a, afferents/total): 3/10
